Literature values as cited in article PMC12150326 (The Journal of Organic Chemistry, 2025).
Several values for one entry are separate records, joined by “and”; a condition that tells them apart may be missing. Equal values may be shown once. Read-outs that look alike come from different tables or passages of the source.

Assays:
Set-up in all cases: method as in NCI-60 database
CCRF-CEM = CCRF-CEM ref NCI-60 database, cited from earlier work
A549/ATCC = A549/ATCC ref NCI-60 database, cited from earlier work
HOP-62 = HOP-62 ref NCI-60 database, cited from earlier work
KM12 = conditions: cited from earlier work
SF-268 = SF-268 ref NCI-60 database, cited from earlier work
SNB-19 = SNB-19 ref NCI-60 database, cited from earlier work
SK-MEL-2 = SK-MEL-2 ref NCI-60 database, cited from earlier work
SN12C = SN12C ref NCI-60 database, cited from earlier work
DU-145 = DU-145 ref NCI-60 database, cited from earlier work
HOP-18 = HOP-18 ref NCI-60 database; cited from earlier work
DMS 273 = DMS 273 ref NCI-60 database, cited from earlier work
[1] = KM12 ref NCI-60 database, listed as 757/9

SMILES: COc1cc2c(c(OC)c1OC)-c1ccc(OC)c(=O)cc1[C@@H](NC(C)=O)CC2 [Colchicine, (−)-Colchicine]
- GI50 (CCRF-CEM): 20 nM
- Log10GI50 (CCRF-CEM): -7.82 Molar
- Log10GI50 (CCRF-CEM; listed as 757/1): -7.39 Molar
- Log10LC50 (CCRF-CEM; listed as 757/9): < -8.00 Molar
- Log10TGI (CCRF-CEM; listed as 757/9): < -8.00 Molar
- Log10GI50 (CCRF-CEM; listed as 757/21): < -8.00 Molar and -7.93 Molar and -7.82 Molar
- Log10LC50 (CCRF-CEM; listed as 757/21): > -4.00 Molar
- Log10TGI (CCRF-CEM; listed as 757/21): > -4.00 Molar
- GI50 (A549/ATCC): 260 nM
- Log10GI50 (A549/ATCC): -6.58 Molar
- Log10LC50 (A549/ATCC): > -4.00 Molar
- Log10TGI (A549/ATCC): > -4.00 Molar
- Log10GI50 (A549/ATCC; listed as 757/9): -6.57 Molar
- Log10LC50 (HOP-62): > -4.00 Molar
- Log10TGI (HOP-62): > -4.00 Molar
- Log10GI50 (HOP-62; listed as 757/9): -7.43 Molar
- GI50 (KM12; KM12 (printed KM29) ref NCI-60 database): 40 nM
- Log10GI50 (KM12; KM12 ref NCI-60 database): -7.35 Molar
- Log10GI50 (KM12; KM12 ref NCI-60 database, listed as 757/1): -7.65 Molar
- Log10GI50 (KM12; [1]): -7.67 Molar
- Log10LC50 (KM12; [1]): -7.04 Molar
- Log10TGI (KM12; [1]): -7.95 Molar
- Log10LC50 (KM12; KM12 ref NCI-60 database, listed as 757/21): > -4.00 Molar
- GI50 (SF-268): 4680 nM
- Log10GI50 (SF-268): -5.33 Molar
- Log10LC50 (SF-268): > -4.00 Molar
- Log10GI50 (SF-268; listed as 757/9): -7.12 Molar
- Log10TGI (SF-268; listed as 757/9): -6.03 Molar
- Log10TGI (SF-268; listed as 757/21): > -4.00 Molar
- GI50 (SNB-19): 40 nM
- Log10GI50 (SNB-19): -7.43 Molar
- Log10LC50 (SNB-19): > -4.00 Molar
- Log10GI50 (SNB-19; listed as 757/1): < -8.00 Molar
- Log10GI50 (SNB-19; listed as 757/9): -7.55 Molar
- Log10GI50 (SNB-19; listed as 757/21): -7.22 Molar and -7.43 Molar
- GI50 (SK-MEL-2): < 10 nM
- Log10GI50 (SK-MEL-2): < -8 Molar
- Log10LC50 (SK-MEL-2): > -4.00 Molar
- Log10GI50 (SK-MEL-2; listed as 757/1): -7.53 Molar
- Log10TGI (SK-MEL-2; listed as 757/1): < -8.00 Molar
- Log10GI50 (SK-MEL-2; listed as 757/21): < -8.00 Molar
- Log10TGI (SK-MEL-2; listed as 757/21): > -4.00 Molar
- GI50 (SN12C): 54 nM
- Log10GI50 (SN12C): -7.27 Molar
- Log10LC50 (SN12C): > -4.00 Molar
- Log10GI50 (SN12C; listed as 757/9): < -8.00 Molar
- Log10GI50 (SN12C; listed as 757/21): -7.33 Molar and -7.28 Molar and -7.27 Molar
- Log10TGI (SN12C; listed as 757/21): > -4.00 Molar and -4.21 Molar
- GI50 (DU-145): 8320 nM
- Log10GI50 (DU-145): -5.08 Molar
- Log10LC50 (DU-145): > -4.00 Molar
- Log10GI50 (DU-145; listed as 757/9): -7.29 Molar
- Log10TGI (DU-145; listed as 757/9): -5.83 Molar
- Log10GI50 (DU-145; listed as 757/21): -5.08 Molar
- Log10TGI (DU-145; listed as 757/21): > -4.00 Molar
- Log10GI50 (HOP-18): > -4.00 Molar
- Log10LC50 (HOP-18): > -4.00 Molar
- Log10TGI (HOP-18): > -4.00 Molar
- Log10LC50 (DMS 273): > -4.00 Molar
- Log10TGI (DMS 273): > -4.00 Molar
- Log10GI50 (DMS 273; listed as 757/1): -7.51 Molar
- Log10GI50 (DMS 273; listed as 757/21): < -8.00 Molar and -7.87 Molar
